Measured values reported in US4399132A, “7-Beta-[alpha-syn-methoxyimino-alpha-(2-aminothiazol-4-yl)-aceta mido]-3-[(1,2,3-thiadiazol-5-ylthio)methyl]-3-cephem-4-carboxylic acid and C1 -C6 alkyl derivatives thereof” (American Cyanamid Company, priority 1981, dated 1983).
In brackets after ≈: the same amount, converted by molar mass. Where two headings read alike, the source gives them in different places.

Columns and labels:
Enterococcus sp. = assay: Mueller-Hinton agar dilution method (MIC); type: cell-based; conditions: Table I
Providencia stuartti = assay: Mueller-Hinton agar dilution method (MIC); type: cell-based; conditions: strain K-81-29, Table I, read-out: Minimal Inhibitory Concentration
Klebsiella oxytoca = assay: Mueller-Hinton agar dilution method (MIC); type: cell-based; conditions: strain K-81-6, Table I, read-out: Minimal Inhibitory Concentration
Pseudomonas aeruginosa = assay: Mueller-Hinton agar dilution method (MIC); type: cell-based; conditions: read-out: Minimal Inhibitory Concentration
Staphylococcus aureus [1] = assay: Mueller-Hinton agar dilution method (MIC); type: cell-based; conditions: read-out: Minimal Inhibitory Concentration
Salmonella sp. = assay: Mueller-Hinton agar dilution method (MIC); type: cell-based; conditions: strain SSC-79-57, Table I, read-out: Minimal Inhibitory Concentration
Text: The results appear in Tables I, II, and III.

Escherichia coli [2] = assay: Mueller-Hinton agar dilution method (MIC); type: cell-based; conditions: read-out: Minimal Inhibitory Concentration
Enterobacter cloacae = assay: Mueller-Hinton agar dilution method (MIC); type: cell-based; conditions: read-out: Minimal Inhibitory Concentration
Serratia marcescens = assay: Mueller-Hinton agar dilution method (MIC); type: cell-based; conditions: read-out: Minimal Inhibitory Concentration
Salmonella (arizona) = assay: Mueller-Hinton agar dilution method (MIC); type: cell-based; conditions: strain QHC-77-3, Table I, read-out: Minimal Inhibitory Concentration
Proteus rettgeri = assay: Mueller-Hinton agar dilution method (MIC); type: cell-based; conditions: Providencia rettgeri; strain N-76-1; Table I; read-out: Minimal Inhibitory Concentration
Escherichia coli [3] = assay: control of systemic lethal infections in mice; type: in vivo, mice (Charles River Laboratories CD-1 strain female); conditions: sc, 168 h, strain 311, subcutaneous 30 min after i.p. infection, survival at 7 days, three tests pooled, 95% confidence limits (0.28-0.44), read-out: Median Effective Dose (ED50)
Experimental: (§1) The test employed used Charles River Laboratories CD-1 strain female mice each weighing 20+2 grams. The mice were infected by intraperitoneal injection of sufficient bacteria (see Table 2), contained in either 0.5 ml. of 5% mucin (S. aureus strains) or broth (S. pyogenes or E. coli), to kill 95-100% of untreated mice within 48 hours.
(§2) The mice were treated by subcutaneous injection 30 minutes after infection with the test drug at varying doses contained in 0.5 ml. of 0.2% aqueous agar. Survival ratios seven days after infection were recorded.

Staphylococcus aureus [4] = assay: control of systemic lethal infections in mice; type: in vivo, mice (Charles River Laboratories CD-1 strain female); conditions: sc, 168 h, survival at 7 days, three tests pooled, read-out: Median Effective Dose (ED50)
Experimental: as §1, §2

Staphylococcus pyogenes = assay: control of systemic lethal infections in mice; type: in vivo, mice (Charles River Laboratories CD-1 strain female); conditions: Staphylococcus aureus, sc, 168 h; strain C 203; subcutaneous 30 min after i.p. infection; survival at 7 days; three tests pooled; 95% confidence limits (0.08-0.13); read-out: Median Effective Dose (ED50)
Experimental: as §1, §2

Acinetobacter sp. = assay: Mueller-Hinton agar dilution method (MIC); type: cell-based; conditions: read-out: Minimal Inhibitory Concentration
Proteus morganii = assay: Mueller-Hinton agar dilution method (MIC); type: cell-based; conditions: Morganella morganii, Table I, read-out: Minimal Inhibitory Concentration
Citrobacter sp. = assay: Mueller-Hinton agar dilution method (MIC); type: cell-based; conditions: strain K-81-27, Table I, read-out: Minimal Inhibitory Concentration
Klebsiella pneumoniae = assay: Mueller-Hinton agar dilution method (MIC); type: cell-based; conditions: Table I
Enterobacter aerogenes = assay: Mueller-Hinton agar dilution method (MIC); type: cell-based; conditions: Klebsiella aerogenes; strain STFD-79-14; Table I; read-out: Minimal Inhibitory Concentration

Q: With `CO/N=C(\C(=O)N[C@@H]1C(=O)N2C(C(=O)O)=C(CSc3cnns3)CS[C@H]12)c1csc(N)n1` [Compound Ia, 7 beta-[alpha-syn-methoxyimino-alpha-(2-aminothiazol-4-yl)acetamido]-3-[(1,2,3-thiadiazol-5-ylthio)methyl]-3-cephem-4-carboxylic acid] as the compound, how does the MIC (Enterococcus sp.; Enterococcus, strain OSU-75-1, read-out: Minimal Inhibitory Concentration) read?
A: 32 µg/mL (≈ 62.3 µM)

Q: And the “Minimal Inhibitory Concentration” value (Enterococcus sp.; strain SM-77-15)?
A: 32 µg/mL

Q: What about the MIC (Providencia stuartti) of the same compound?
A: 0.06 µg/mL (≈ 0.117 µM)

Q: What about the MIC (Klebsiella oxytoca) of the same compound?
A: 0.03 µg/mL (≈ 0.0584 µM)

Q: And the MIC (Pseudomonas aeruginosa; strain 12-4-4, Table I)?
A: 32 µg/mL (≈ 62.3 µM)

Q: And the MIC (Pseudomonas aeruginosa; strain SSC-78-13, Table I)?
A: 64 µg/mL (≈ 125 µM)

Q: And the MIC (Pseudomonas aeruginosa; strain TUL-78-2, Table I)?
A: 128 µg/mL (≈ 249 µM)

Q: And the MIC (Staphylococcus aureus [1]; beta-lactamase negative, strain SSC 79-3, Table II)?
A: 0.12 µg/mL (≈ 0.234 µM)

Q: What about the MIC (Staphylococcus aureus [1]; beta-lactamase negative, strain SSC 79-5, Table II) of the same compound?
A: 0.5 µg/mL (≈ 0.974 µM)

Q: What about the MIC (Staphylococcus aureus [1]; beta-lactamase negative, strain SSC 79-7, Table II) of the same compound?
A: 0.12 µg/mL (≈ 0.234 µM)

Q: What about the MIC (Staphylococcus aureus [1]; beta-lactamase negative, strain SSC 79-9, Table II) of the same compound?
A: 0.12 µg/mL (≈ 0.234 µM)

Q: And the MIC (Staphylococcus aureus [1]; beta-lactamase negative, strain SSC 79-10, Table II)?
A: 0.12 µg/mL (≈ 0.234 µM)

Q: And the MIC (Staphylococcus aureus [1]; beta-lactamase negative, strain SSC 79-11, Table II)?
A: 0.12 µg/mL (≈ 0.234 µM)

Q: And the MIC (Staphylococcus aureus [1]; beta-lactamase negative, strain SSC 79-14, Table II)?
A: 0.5 µg/mL (≈ 0.974 µM)

Q: And the MIC (Staphylococcus aureus [1]; beta-lactamase negative, strain SSC 79-15, Table II)?
A: 0.5 µg/mL (≈ 0.974 µM)

Q: And the MIC (Staphylococcus aureus [1]; beta-lactamase negative, strain SSC 79-17, Table II)?
A: 0.25 µg/mL (≈ 0.487 µM)

Q: What about the MIC (Staphylococcus aureus [1]; beta-lactamase positive, strain SSC 79-24, Table II) of the same compound?
A: 4 µg/mL (≈ 7.79 µM)

Q: And the MIC (Staphylococcus aureus [1]; beta-lactamase positive, strain SSC 79-27, Table II)?
A: 0.25 µg/mL (≈ 0.487 µM)

Q: What about the MIC (Staphylococcus aureus [1]; beta-lactamase positive, strain SSC 79-28, Table II) of the same compound?
A: 0.25 µg/mL (≈ 0.487 µM)

Q: And the MIC (Staphylococcus aureus [1]; beta-lactamase positive, strain SSC 79-36, Table II)?
A: 0.25 µg/mL (≈ 0.487 µM)

Q: What about the MIC (Staphylococcus aureus [1]; beta-lactamase positive, strain SSC 79-38, Table II) of the same compound?
A: 0.25 µg/mL (≈ 0.487 µM)

Q: What about the MIC (Staphylococcus aureus [1]; beta-lactamase positive, strain SSC 79-39, Table II) of the same compound?
A: 0.25 µg/mL (≈ 0.487 µM)

Q: What about the MIC (Staphylococcus aureus [1]; beta-lactamase positive, strain SSC 79-41, Table II) of the same compound?
A: 0.5 µg/mL (≈ 0.974 µM)

Q: And the MIC (Staphylococcus aureus [1]; beta-lactamase positive, strain SSC 79-44, Table II)?
A: 0.12 µg/mL (≈ 0.234 µM)

Q: And the MIC (Staphylococcus aureus [1]; beta-lactamase positive, strain SSC 79-47, Table II)?
A: 0.25 µg/mL (≈ 0.487 µM)

Q: What about the MIC (Staphylococcus aureus [1]; strain FU-79-19-2, Table I) of the same compound?
A: 0.5 µg/mL (≈ 0.974 µM)

Q: And the MIC (Staphylococcus aureus [1]; strain SSC-79-18, Table I)?
A: 0.25 µg/mL (≈ 0.487 µM)

Q: And the MIC (Staphylococcus aureus [1]; strain SSC-80-15, Table I)?
A: 0.5 µg/mL (≈ 0.974 µM)

Q: And the MIC (Staphylococcus aureus [1]; strain Smith, Table I)?
A: 0.25 µg/mL (≈ 0.487 µM)

Q: And the MIC (Salmonella sp.)?
A: 0.25 µg/mL (≈ 0.487 µM)

Q: What about the MIC (Escherichia coli [2]; strain #311, Table I) of the same compound?
A: 0.03 µg/mL (≈ 0.0584 µM)

Q: And the MIC (Escherichia coli [2]; strain K-81-14, Table I)?
A: 0.06 µg/mL (≈ 0.117 µM)

Q: What about the MIC (Escherichia coli [2]; strain STFD-79-20, Table I) of the same compound?
A: 0.015 µg/mL (≈ 0.0292 µM)

Q: What about the MIC (Enterobacter cloacae; strain K-79-16, Table I) of the same compound?
A: 0.25 µg/mL (≈ 0.487 µM)

Q: And the MIC (Enterobacter cloacae; strain K-81-46, Table I)?
A: 0.12 µg/mL (≈ 0.234 µM)

Q: What about the MIC (Serratia marcescens; strain K-81-39, Table I) of the same compound?
A: 0.12 µg/mL (≈ 0.234 µM)

Q: And the MIC (Serratia marcescens; strain QHC-77-2, Table I)?
A: 1 µg/mL (≈ 1.95 µM)

Q: And the MIC (Serratia marcescens; strain TUL-78-15, Table I)?
A: 1 µg/mL (≈ 1.95 µM)

Q: What about the MIC (Salmonella (arizona)) of the same compound?
A: 0.03 µg/mL (≈ 0.0584 µM)

Q: What about the MIC (Proteus rettgeri) of the same compound?
A: 0.015 µg/mL (≈ 0.0292 µM)

Q: What about the ED50 (Escherichia coli [3]) of the same compound?
A: 0.35 mg/kg

Q: And the ED50 (Staphylococcus aureus [4]; strain Fu-79-2, subcutaneous 30 min after i.p. infection, 95% confidence limits (4.4-8.4))?
A: 6.1 mg/kg

Q: And the ED50 (Staphylococcus aureus [4]; strain Smith, subcutaneous 30 min after i.p. infection, 95% confidence limits (2.4-3.6))?
A: 2.9 mg/kg

Q: What about the ED50 (Staphylococcus pyogenes) of the same compound?
A: 0.1 mg/kg

Q: And the MIC (Acinetobacter sp.; strain K-77-1, Table I)?
A: 4 µg/mL (≈ 7.79 µM)

Q: And the MIC (Acinetobacter sp.; strain K-77-6, Table I)?
A: 16 µg/mL (≈ 31.2 µM)

Q: And the MIC (Acinetobacter sp.; strain STFD-79-17, Table I)?
A: 16 µg/mL (≈ 31.2 µM)

Q: And the MIC (Proteus morganii; strain K-77-3)?
A: 4 µg/mL (≈ 7.79 µM)

Q: And the MIC (Proteus morganii; strain K-79-25)?
A: 0.015 µg/mL (≈ 0.0292 µM)

Q: What about the MIC (Citrobacter sp.) of the same compound?
A: 0.03 µg/mL (≈ 0.0584 µM)

Q: What about the MIC (Klebsiella pneumoniae; Klebsiella pneumoniae, strain STFD-79-16, read-out: Minimal Inhibitory Concentration) of the same compound?
A: 0.015 µg/mL (≈ 0.0292 µM)

Q: And the “Minimal Inhibitory Concentration” value (Klebsiella pneumoniae; strain SSC-78-1)?
A: .015 µg/mL

Q: What about the MIC (Enterobacter aerogenes) of the same compound?
A: 0.03 µg/mL (≈ 0.0584 µM)
